Experimental data reported in US4749710A, “Immunosuppressive agents” (priority 1985, dated 1988).
Read-outs that look alike come from different tables or passages of the source.

What was measured:
Format in all cases: cell-based
[1] = system: IgM production by human lymphocytes; assay: Inhibition of IgM production by human lymphocytes in vitro (SAC activation, ELISA); details: 8 days, vehicle control 2.49 ± 0.17
From the text: (§1) General Test Description Humoral immunity comprises one of the two major arms of the immune system and generally is beneficial. However, a number of disease states are characterized by a hyperactive immune system responding to self tissue antigens. […] In these diseases it would be important to suppress the humoral immune system.
(§2) In the following studies we used established methods to examine the effect of Vitamin D derivatives on the in vitro production of immunoglobulin (Ig) by human peripheral blood leukocytes (PBL) following polyclonal activation. Immunoglobulin was induced from PBL by co-culturing the PBL with the polyclonal B cell activator Staphylococcus aureus strain Cowan I (SAC) for a period of 8 days. The quantity of Ig produced in the culture supernatants was determined by using an enzyme linked immunosorbent assay (ELISA). The effect of Vitamin D derivatives was determined by comparing the amount of antibody produced in cultures containing Vitamin D derivatives to those cultures containing an appropriate concentration of vehicle (ethanol).
(§3) Solutions of vitamin D derivatives. Stock solutions of vitamin D derivatives were prepared as described previously for the murine CTL experiments.
(§4) INDUCTION OF HUMAN IG SECRETION Human peripheral blood mononuclear leukocytes were prepared from one day old buffy coat preparations obtained from the American Red Cross (Lansing, MI). […] Twenty five ml of this preparation were overlayed onto 25 ml of Ficoll-Paque contained in a 50 ml polypropylene centrifuge tube. After centrifugation at 400×g at 15° C. for 40 min, the cells at the interface of the medium and Ficoll were removed and washed 3 times in 50 ml RPMI medium and centrifuged at 300×g for 10 minutes. After the final centrifugation,the cell pellet was suspended in RPMI medium containing 20% fetal bovine serum (FBS) and 80 μg/ml gentamicin. The number of viable cells was determined by trypan blue exclusion and were then suspended to 2.5×10^6 viable cells per ml in RPMI containing 20% FBS and gentamicin. Human PBL were induced to secrete Ig as follows. One hundred microliters of the PBL suspension and an additional 100 μl of a 1:20,000 (v/v) preparation of SAC suspended in RPMI containing 1% FBS were added to each well of a 96-well microtiter plate. Selected wells were also set up without the addition of SAC to serve as negative controls (spontaneous Ig secretion). Each well then received 20 μl of either the appropriate dilution of Vitamin D derivative in RPMI with 1% ethanol or RPMI with 1% ethanol (vehicle control). The vitamin D derivatives were tested at final concentrations of 10^-5, 10^-6, 10^-7, 10^-8, 10^-9, and 10^-10 M and in all cases the vehicle (ethanol) concentration was 0.1%. All treatments were performed in triplicate. […] The samples were then either assayed immediately or stored at -20° C. until assayed by the ELISA technique described below.
(§5) QUANTITATION OF SECRETED IG (ELISA ASSAY) ELISA plates were prepared for quantitating human IgG and IgM levels in culture supernatants as follows. Affinity purified sheep anti-human IgG and goat anti-human IgM (Cappel, Cochranville, PA) were diluted 1:250 and 1:400 respectively, in carbonate coating buffer (0.05M sodium bicarbonate, 0.05M sodium carbonate, 0.15M sodium chloride). One hundred and fifty microliters of the antibody preparation were added to each well of a 96 well ELISA plate (EIA, Costar). The plates were sealed and incubated overnight at 4° C. and on the following day were washed 3 times with distilled water. Each well then received 350 μl of Dulbecco's PBS containing 1 mg/ml bovine serum albumin (BSA) and 0.5 mg/ml sodium azide. The plates were allowed to incubate for 1 hour at 37° C. and then washed 3 times with Dulbecco's PBS containing 0.5% stock Tween 20 (PBS-Tween) followed by 2 washes with distilled water. The plates were air dried and stored desiccated under a vacuum at 4° C. until use.

[2] = system: IgG production by human lymphocytes; assay: Inhibition of IgG production by human lymphocytes in vitro (SAC activation, ELISA); details: 8 days, vehicle control 0.78 ± 0.09
From the text: as §1, §2, §3, §4, §5

[3] = system: human cytotoxic T-lymphocyte responses; assay: Inhibition of human CTL responses (mixed leukocyte-tumor cultures, HT-144 melanoma, ^51 Cr release); details: donor I, 0.01% ethanol, effector to target 6:1; for inhibition at 1 µM / inhibition at 0.1 µM / inhibition at 10 µM: Homo sapiens, T-lymphocyte
Experimental: Human cells for the tests described below were taken from four donors designated I, II, III, and IV in the tables below.
Stock solutions of Vitamin D derivatives were prepared as they were prepared above in the murine tests.
Human cytotoxic T-lymphocytes were generated in mixed leukocyte-tumor cultures by known methods. Specifically, blood from normal volunteer donors was drawn into heparinized syringes, diluted 1:1 with calcium-magnesium free Hanks' balanced salt solution (Ca-Mg free HBSS), and layered over lymphocyte separation medium (Litton Bionetics, Kensington, MD). After centrifugation at 500xg for 20-30 min at room temperature, peripheral blood mononuclear cells were harvested from the interface. The peripheral blood mononuclear leukocytes were centrifuged and resuspended in Ca-Mg free HBSS and were subsequently separated from platelets by centrifugation at 500xg through a solution of 20% sucrose and 1% human AB serum in Ca-Mg free HBSS. The cells were washed once and finally resuspended in tissue culture medium. […] Cells to be used as stimulator cells in mixed leukocyte-tumor cultures were irradiated with 10,000 rads of gamma irradiation to preclude proliferation in culture. Mixed leukocyte-tumor cell cultures were established in 16 mm tissue culture wells at a final volume of 1.5 ml per well containing 2×10^6 peripheral blood mononuclear leukocytes and 5×10^4 irradiation-inactivated stimulator cells. In order to prevent the generation of nonspecific cytotoxic cells in these cultures, hydrocortisone sodium succinate was added to each culture at a final concentration of 1×10^-5 M. Mixed leukocyte-tumor cultures were incubated for 6 days in a humidified atmosphere of 5% CO2 in air.
Labelled target cells were washed free of unbound isotope by 3 serial washes in tissue culture medium and were finally resuspended at a concentration of 5×10^4 cells per ml.
Assays of human cytotoxic T-lymphocytes were done by known methods. Specifically, one-tenth ml aliquots of ^51 Cr-labelled target cell suspension were added to "half area" microtest plates and were incubated at 37° C. for 18 hours in a humidified atmosphere of 5% CO2 in air to permit the cells to adhere and spread on the floor of each well. Culture medium was then aspirated from each well and was replaced with 0.1 ml of tissue culture medium containing cells harvested from mixed leukocyte-tumor cultures which had been processed as described for murine mixed leukocute cultures, above. Control wells for measurement of spontaneous ^51 Cr release received medium without effector cells and wells for measurement of maximal releasable ^51 Cr received 0.1 ml of 2% sodium dodecyl sulfate in distilled water. After overnight incubation at 37° in a humidified atmosphere of 5% CO2 in air, 0.05 ml of cell-free supernatant was withdrawn from each well and the amount of released ^51 Cr was quantitated using a gamma spectrometer. The percentage of specific ^51 Cr release (CTL activity) and the percent inhibition of CTL activity were calculated with the same formulas used above for the murine CTL assay.
Tests conducted on human cytotoxic T-lymphocyte responses are reported as the mean±standard error of the mean from triplicate ^51 Cr release determinations on pooled cells from duplicate control or test cultures.

Row | Compound | IgM μg per culture (x ± S.E.M.) ([1]; 1 × 10^-6 molar) | IgM μg per culture (x ± S.E.M.) ([1]; 1 × 10^-7 molar) | IgM μg per culture (x ± S.E.M.) ([1]; 1 × 10^-8 molar) | IgM μg per culture (x ± S.E.M.) ([1]; 1 × 10^-9 molar) | IgM μg per culture (x ± S.E.M.) ([1]; 1 × 10^-10 molar) [μg per culture] | IgG μg per culture (x ± S.E.M.) ([2]; 1 × 10^-6 molar) | IgG μg per culture (x ± S.E.M.) ([2]; 1 × 10^-7 molar) | IgG μg per culture (x ± S.E.M.) ([2]; 1 × 10^-8 molar) [μg per culture] | IgG μg per culture (x ± S.E.M.) ([2]; 1 × 10^-9 molar) [μg per culture] | IgG μg per culture (x ± S.E.M.) ([2]; 1 × 10^-10 molar) [μg per culture] | CTL activity (% specific ^51 Cr release) ([3]; Test 1, 1 × 10^-6 molar) | CTL activity (% specific ^51 Cr release) ([3]; Test 1, 1 × 10^-7 molar) | CTL activity (% specific ^51 Cr release) ([3]; Test 2, 1 × 10^-5 molar) | CTL activity (% specific ^51 Cr release) ([3]; Test 2, 1 × 10^-6 molar) | further results
1 | C=C1/C(=C\C=C2/CCC[C@]3(C)[C@@H]([C@H](C)CCCC(C)(C)O)CC[C@@H]23)C[C@@H](O)C[C@@H]1F [1α-F--25-OH--D3, 1α-Fluoro-25-hydroxycholecalciferol] | undetectable | 0.38 ± 0.30 μg per culture | 1.83 ± 0.29 μg per culture | 3.10 ± 0.10 μg per culture | 4.48 ± 0.75 | undetectable | 0.08 ± 0.05 μg per culture | 0.14 ± 0.05 | 0.18 ± 0.001 | 0.45 ± 0.11 | – | – | – | – | –
2 | C=C1/C(=C/C=C2\CCC[C@]3(C)[C@@H]([C@H](C)CCCC(C)(C)O)CC[C@@H]23)C[C@@H](O)C[C@@H]1O [5,6-trans-1α,25-(OH)2 --D3, 1α,25-Dihydroxy-5,6-trans-cholecalciferol] | undetectable | 0.04 ± 0.01 μg per culture | 0.50 ± 0.21 μg per culture | 2.36 ± 0.27 μg per culture | 2.79 ± 0.18 | undetectable | 0.01 ± 0.001 μg per culture | 0.21 ± 0.12 | 0.29 ± 0.05 | 0.55 ± 0.16 | 20 ± 2 | 20 ± 2 | 17 ± 3 | 11 ± 2 | inhibition at 1 µM ([3]; read-out: Inhibition of CTL activity (%), Test 1, 1 × 10^-6 molar): 62%; inhibition at 0.1 µM ([3]; read-out: Inhibition of CTL activity (%), Test 1, 1 × 10^-7 molar): 62%; inhibition at 10 µM ([3]; read-out: Inhibition of CTL activity (%), Test 2, 1 × 10^-5 molar): 60%; inhibition at 1 µM ([3]; read-out: Inhibition of CTL activity (%), Test 2, 1 × 10^-6 molar): 74%
3 | C=C1/C(=C\C=C2/CCC[C@]3(C)[C@@H]([C@H](C)CCC(F)(F)C(C)(C)O)CC[C@@H]23)C[C@@H](O)C[C@@H]1O [24,24-(F)2 --1α,25-(OH)2 --D3, 1α,25-Dihydroxy-24,24-difluorocholecalciferol] | undetectable | undetectable | undetectable | undetectable | 0.50 ± 0.12 | undetectable | undetectable | 0.01 ± 0.003 | 0.02 ± 0.02 | 0.11 ± 0.03 | 15 ± 1 | 10 ± 1 | 9 ± 2 | 5 ± 2 | inhibition at 1 µM ([3]; Test 1, 1 × 10^-6 molar, read-out: Inhibition of CTL activity (%)): 71%; inhibition at 0.1 µM ([3]; Test 1, 1 × 10^-7 molar, read-out: Inhibition of CTL activity (%)): 81%; inhibition at 10 µM ([3]; Test 2, 1 × 10^-5 molar, read-out: Inhibition of CTL activity (%)): 83%; inhibition at 1 µM ([3]; Test 2, 1 × 10^-6 molar, read-out: Inhibition of CTL activity (%)): 91%
